Data set [1] deals with human recombinant DAO (Homo sapiens (Human), UniProt P19801). Briefly: Determination of selective inhibitory for DAO (diamine oxidase). Particulars: human recombinant DAO, 1,4-diaminobutane substrate. It counts as biochemical. The method, then: 3. Determination of Selective Inhibitory for DAO (Diamine Oxidase)
Test purpose: The following methods can be used to determine the selective inhibitory activity of the compounds of the invention for DAO.
human recombinant DAO (Recombinant Human ABP-1/DAO) purchased from R&D, Cat. No. 8298-AO;
The test compound was dissolved in DMSO and diluted to 6 concentrations in 5-fold serial dilution. In 384 well plates, 24 μL of human recombinant DAO (1 μg/mL) was added to each well. 1 μL Of test compounds with different concentrations were added to each well containing human recombinant DAO and incubated at 37° C. for 30 min. After 30 min incubation, 25 μL of Amplex® Red Hydrogen PeroxidePeroxidase Assay Kit (containing a reaction mixture of 100 μM Amplex® Red and 0.2 U/mL HRP) containing 1 M 1,4-Diaminobutane dihydrochloride was added to the corresponding well, and incubated at 37° C. and dark for 30 min. After 30 min, the relative fluorescence unit (RFU) was read by using PHERAstar FSX enzyme marker of BMG LABTECH at 540 nm excitation and 580 nm emission. The curve was drawn by using the graph pad prism 5 software, and the IC50 value was calculated. The results were shown in table 3, wherein the compound listed in table 3 is the compound in the preparation examples with the same compound number: […]

Data set [2] concerns the target Human recombinant SSAO/VAP-1 (Homo sapiens (Human), UniProt Q16853). Briefly: Determination of inhibitory activity of human recombinant SSAO/VAP-1 (Amplex Red, benzylamine). It counts as biochemical. The note with it: human recombinant SSAO/VAP-1, 30 min preincubation at room temperature; read-out: SSAO/VAP-1(Human recombinant protein) IC50/nM. The procedure: 1. Determination of Inhibitory Activity of Human Recombinant SSAO/VAP-1
Test purpose: The following methods can be used to determine the inhibitory activity of the compounds described in the examples of the invention for human recombinant SSAO/VAP-1.
Human recombinant SSAO/VAP-1 (VAP-1, human) purchased from Sigma, Cat. No. SRP6241;
The test compound was dissolved in DMSO and diluted to 10 concentrations in 4-fold serial dilution. In 384 well plates, 25 μL of human recombinant SSAO/VAP-1 (1.6 μg/ml) was added to each well. 100 nL of test compounds with different concentrations were added to each well containing human recombinant SSAO/VAP-1 and incubated at room temperature for 30 min. After 30 min incubation, 25 μl of Amplex® red monoamine oxidase assay kit (containing a reaction mixture of 200 μm Amplex Red reagent, 1 U/ml HRP and 1 mm benzylamine hydrochloride) was added to the corresponding well, and incubated at room temperature and dark for 60 min. After 60 min, the relative fluorescence unit (RFU) was read by using PerkinElmer's Envision at 530-560 nm excitation and 590 nm emission. The curve was drawn by using the graph pad prism 5 software, and the IC50 value was calculated. The results were shown in table 1, wherein the compound listed in table 1 is the compound in the preparation examples with the same compound number: […]

Data set [3] addresses rat adipose tissue homogenate SSAO/VAP-1 (Rattus norvegicus (Rat), UniProt O08590). The data set can be described thus: Determination of inhibitory activity of rat adipose tissue homogenate SSAO/VAP-1. In kind it is biochemical, Sprague Dawley rats. The note with it: rat abdominal adipose tissue homogenate, pargyline pretreated, 37° C. The procedure: 2. Determination of Inhibitory Activity of Rat Adipose Tissue Homogenate SSAO/VAP-1
Test purpose: The following methods can be used to determine the inhibitory activity of the compounds of the invention for rat adipose tissue homogenate SSAO/VAP-1.
The abdominal fat removed from Sprague Dawley rats was a tissue rich in SSAO/VAP-1. 5 mL Of HES buffer per gram of rat abdominal adipose tissue (20 mM Sodium N-piperazine-N-ethanesulfonate, 1 mm EDTA, 250 mM sucrose, 1×PMSF and 100 mM (3-glycerol phosphate disodium salt hydrate, pH 7.4) was added for homogenizing. The fat tissue was homogenized for 3 min by using Bertin precellys 24 multi-functional sample homogenizer of Bertin technologies, and the fat tissue homogenate was centrifuged for 10 min at 4° C. and 20000 g, and the middle transparent supernatant was taken. The supernatant was incubated with 0.5 mm Pargyline hydrochloride dissolved in HES buffer at 37° C. for 30 min. After 30 min incubation, 25 μl of fat tissue supernatant was added to the standard 96 well plate. The test compound was dissolved in DMSO and diluted to 6 concentrations. 25 μL Of the test compounds with different concentrations was added to each well containing the supernatant of fat tissue and incubated at 37° C. for 30 min. After incubation, 50 μL of the reaction mixture containing 80 μM benzylamine hydrochloride (containing 100 μM Amplex® red and 0.2 U/mL HRP, Amplex® Red Hydrogen peroxideperoxidase assay kit) was added to the corresponding wells and incubated at 37° C. for 30 min. After 30 min, the relative fluorescence unit (RFU) was read by using PHERAstar FSX enzyme marker of BMG LABTECH at 540 nm excitation and 580 nm emission. The curve was drawn by using the graph pad prism 5 software, and the IC50 value was calculated. The results were shown in table 2, wherein the compound listed in table 2 is the compound in the preparation examples with the same compound number: Table 2: inhibitory activity of the compound of examples of the invention for SSAO/VAP-1 of fat tissue homogenate

Data set [4] is described as follows: Pharmacokinetics in SD rats after intravenous or oral administration. It counts as in vivo. Particulars: male, rat, plasma; for Vd: read-out: Vss. The procedure:
4. Pharmacokinetic Activities of the Compounds of the Invention
Test purpose: The following methods were used to evaluate the pharmacokinetics of the compound of the invention.
SD rats: male, 180-220 g, 7-8 weeks old, purchased from Hunan SJA Laboratory Animal Co., Ltd.
Test compound was prepared by dissolving in a mixture of 5% DMSO+5% KolliphorHS15+90% Saline and adjusted according to the dissolution of each compound, so that the compound can be completely dissolved.
The samples were processed by liquid-liquid extraction, separated by chromatography, quantitatively analyzed by multiple reaction ion monitoring (MRM) on triple quadrupole tandem mass spectrometer, and the results were calculated by using quantitative software.
Taking 30 μL of plasma sample precisely, adding 250 μL of internal standard, and vortex mixing uniformly. Extracting once with 1 mL MTBE, centrifugating at 13000 rpm and 4° C. for 2 min, taking 800 μL of supernatant, and evaporating it in a 96-well termovap sample concentrator, dissolving the residue with 150 μL methanol/water=50/50, vortex mixing, injecting 8 μL.
Determining the content of different compounds in the plasma of rats after the administration by using LC/MS/MS method.
Pharmacokinetic parameters were calculated using a noncompartmental method by WinNonLin 6.1 software.
The pharmacokinetic data of the compounds of the invention were listed in table 4, wherein the compound listed in table 4 is the compound in the preparation examples with the same compound number: […]

Structures can show the parent of a compound that is named as a salt.

Consider ten compounds from patent publication US11396495B2, “Amine compound for inhibiting SSAO/VAP-1 and use thereof” (SUNSHINE LAKE PHARMA CO., LTD., priority 2017, dated 2022).

rat adipose tissue homogenate SSAO/VAP-1, sequence (O08590 whole entry): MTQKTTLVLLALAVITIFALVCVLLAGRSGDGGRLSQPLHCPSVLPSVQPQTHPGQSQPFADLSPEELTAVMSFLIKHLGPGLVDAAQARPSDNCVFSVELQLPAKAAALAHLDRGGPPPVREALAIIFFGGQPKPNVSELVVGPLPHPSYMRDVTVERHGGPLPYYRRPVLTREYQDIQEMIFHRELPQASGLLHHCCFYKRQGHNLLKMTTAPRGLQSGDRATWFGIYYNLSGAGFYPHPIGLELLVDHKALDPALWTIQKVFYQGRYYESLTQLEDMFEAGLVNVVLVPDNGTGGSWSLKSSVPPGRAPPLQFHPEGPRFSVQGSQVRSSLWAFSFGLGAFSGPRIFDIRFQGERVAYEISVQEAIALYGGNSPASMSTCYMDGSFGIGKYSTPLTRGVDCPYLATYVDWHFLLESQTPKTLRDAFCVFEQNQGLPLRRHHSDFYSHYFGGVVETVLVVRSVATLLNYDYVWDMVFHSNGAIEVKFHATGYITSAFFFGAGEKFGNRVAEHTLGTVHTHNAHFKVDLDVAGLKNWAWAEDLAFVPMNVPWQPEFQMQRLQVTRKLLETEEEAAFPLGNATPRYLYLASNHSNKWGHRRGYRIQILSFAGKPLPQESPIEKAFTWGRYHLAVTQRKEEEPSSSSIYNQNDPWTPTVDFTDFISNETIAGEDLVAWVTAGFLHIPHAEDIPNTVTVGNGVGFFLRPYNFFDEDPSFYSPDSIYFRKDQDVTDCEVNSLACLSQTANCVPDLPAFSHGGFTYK
Human recombinant SSAO/VAP-1, sequence (Q16853 whole entry): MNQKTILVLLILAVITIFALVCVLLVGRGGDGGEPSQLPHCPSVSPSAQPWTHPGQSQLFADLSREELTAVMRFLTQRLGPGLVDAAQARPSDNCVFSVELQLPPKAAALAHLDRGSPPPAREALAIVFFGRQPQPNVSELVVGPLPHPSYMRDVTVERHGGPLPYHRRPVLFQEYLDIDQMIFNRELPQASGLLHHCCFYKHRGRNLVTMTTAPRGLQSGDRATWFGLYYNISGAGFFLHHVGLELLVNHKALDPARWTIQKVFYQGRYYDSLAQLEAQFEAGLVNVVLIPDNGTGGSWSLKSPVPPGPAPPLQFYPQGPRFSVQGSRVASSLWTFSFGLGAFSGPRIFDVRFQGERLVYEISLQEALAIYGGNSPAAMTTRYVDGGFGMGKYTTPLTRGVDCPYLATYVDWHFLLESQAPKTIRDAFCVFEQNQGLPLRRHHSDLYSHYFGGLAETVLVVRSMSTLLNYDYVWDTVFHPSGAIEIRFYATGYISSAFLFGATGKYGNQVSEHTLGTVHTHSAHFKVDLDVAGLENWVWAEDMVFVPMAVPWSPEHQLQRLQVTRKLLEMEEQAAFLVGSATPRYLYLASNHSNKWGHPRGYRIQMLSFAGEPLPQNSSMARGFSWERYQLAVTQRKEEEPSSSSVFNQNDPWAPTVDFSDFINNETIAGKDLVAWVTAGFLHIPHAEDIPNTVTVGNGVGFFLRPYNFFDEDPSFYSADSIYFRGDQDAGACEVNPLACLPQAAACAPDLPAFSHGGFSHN
human recombinant DAO, sequence (P19801 20-751): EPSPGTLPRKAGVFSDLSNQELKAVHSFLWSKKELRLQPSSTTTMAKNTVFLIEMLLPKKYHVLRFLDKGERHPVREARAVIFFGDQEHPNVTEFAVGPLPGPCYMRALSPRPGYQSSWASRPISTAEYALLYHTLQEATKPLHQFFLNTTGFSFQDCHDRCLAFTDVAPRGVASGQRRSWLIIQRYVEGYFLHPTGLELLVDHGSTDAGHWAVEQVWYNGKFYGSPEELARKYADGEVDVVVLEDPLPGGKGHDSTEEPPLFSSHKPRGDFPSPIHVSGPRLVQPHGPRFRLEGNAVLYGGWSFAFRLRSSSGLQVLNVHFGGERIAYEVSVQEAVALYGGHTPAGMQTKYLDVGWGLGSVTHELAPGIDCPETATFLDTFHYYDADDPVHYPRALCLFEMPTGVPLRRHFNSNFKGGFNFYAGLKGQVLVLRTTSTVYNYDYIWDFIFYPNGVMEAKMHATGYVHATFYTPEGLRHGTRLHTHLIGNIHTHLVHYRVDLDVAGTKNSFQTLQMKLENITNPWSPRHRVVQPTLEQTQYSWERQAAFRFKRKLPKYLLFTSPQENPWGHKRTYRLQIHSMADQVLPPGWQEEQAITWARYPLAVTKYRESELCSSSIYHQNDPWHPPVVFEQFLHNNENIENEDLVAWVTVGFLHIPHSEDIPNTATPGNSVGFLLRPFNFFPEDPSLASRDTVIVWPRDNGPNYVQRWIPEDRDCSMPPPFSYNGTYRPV

With `NC/C(=C\F)COc1ccc2c(c1)CCNC2=O` [Compound 3, 6-[(E)-2-(aminomethyl)-3-fluoro-allyloxy]-3,4-dihydro-2H-isoquinolin-1-one hydrochloride], the IC50 in data set [1] was more than 0.1 µM.
With `CCOC(=O)CN1CCc2cc(OC/C(=C/F)CN)ccc2C1=O` [Compound 12, ethyl 2-[6-[(E)-2-(aminomethyl)-3-fluoro-allyloxy]-1-oxo-3,4-dihydroisoquinolin-2-yl]acetate hydrochloride], the IC50 in data set [2] was found to be 0.14 nM. In data set [3], the IC50 is 10.1 nM. For the same compound, the IC50 in data set [1] was more than 0.1 µM. In data set [4] (iv, I.V., 1 mg/kg), the AUC(0-inf) came out at 843 ng·h/mL, the AUC(0-t) was found to be 837 ng·h/mL, the Cmax is 946 ng/mL and the Tmax came to 15 min. Besides, in data set [4] (iv, I.V., 1 mg/kg), the clearance was 330 mL/min/kg, the half-life was 56.2 min and the Vd was 1.07 L/kg. For the same compound, in data set [4] (po, P.O., 5 mg/kg), the AUC(0-inf) came out at 2900 ng·h/mL, the AUC(0-t) stood at 2890 ng·h/mL, the peak level (Cmax) was 2190 ng/mL and the Tmax is 25 min. Also, in data set [4] (po, P.O., 5 mg/kg), the half-life was 57.5 min.
For `NC/C(=C\F)COc1ccc2c(c1)C(=O)NCC2` [Compound 14, 7-[(E)-2-(aminomethyl)-3-fluoro-allyloxy]-3,4-dihydro-2H-isoquinolin-1-one hydrochloride], the IC50 in data set [1] is more than 1 µM.
For `NC/C(=C\F)COc1ccc2c(c1)CCN(C1CCOCC1)C2=O` [Compound 16, 6-[(E)-2-(aminomethyl)-3-fluoro-allyloxy]-2-(tetrahydropyran-4-yl)-3,4-dihydroisoquinolin-1-one hydrochloride], the IC50 in data set [2] amounted to 0.22 nM; in data set [3], 6.01 nM.
For the compound `NC/C(=C/F)COc1ccc2c(c1)CCN(C1CCOCC1)C2=O` [Compound 17, 6-[(Z)-2-(aminomethyl)-3-fluoro-allyloxy]-2-(tetrahydropyran-4-yl)-3,4-dihydroisoquinolin-1-one hydrochloride], the IC50 in data set [2] was 0.58 nM; in data set [3] it was 5.03 nM.
Taken in the same sequence, the figures for `COCCN1CCc2cc(OC/C(=C/F)CN)ccc2C1=O` [Compound 18, 6-[(E)-2-(aminomethyl)-3-fluoro-allyloxy]-2-(2-methoxyethyl)-3,4-dihydroisoquinolin-1-one hydrochloride] were 0.48 nM and 6.13 nM.
Taken in the same sequence, the figures for `COCCN1CCc2cc(OC/C(=C\F)CN)ccc2C1=O` [Compound 19, 6-[(Z)-2-(aminomethyl)-3-fluoro-allyloxy]-2-(2-methoxyethyl)-3,4-dihydro isoquinolin-1-one hydrochloride] were 1 nM and 5.7 nM.
Turning to `Cc1ccc(N2CCc3cc(OC/C(=C/F)CN)ccc3C2=O)cc1` [Compound 24, 6-[(E)-2-(aminomethyl)-3-fluoro-allyloxy]-2-(p-methylphenyl)-3,4-dihydroisoquinolin-1-one hydrochloride], the IC50 in data set [2] is 1.16 nM. For the same compound, the IC50 in data set [1] is more than 0.1 µM. In data set [4] (iv, I.V., 1 mg/kg), the AUC(0-inf) amounted to 450 ng·h/mL, the AUC(0-t) was found to be 364 ng·h/mL, the Cmax amounted to 144 ng/mL and the Tmax was 4.98 min. In addition, in data set [4] (iv, I.V., 1 mg/kg), the clearance is 617 mL/min/kg, the half-life was 179 min and the Vd was 9.19 L/kg. For the same compound, in data set [4] (po, P.O., 5 mg/kg), the AUC(0-inf) was determined as 5320 ng·h/mL, the AUC(0-t) came to 5280 ng·h/mL, the concentration peaked (Cmax) at 569 ng/mL and the Tmax stood at 150 min. In data set [4] (po, P.O., 5 mg/kg), this compound had a half-life of 207 min.
On to `NC/C(=C/F)COc1ccc2c(c1)CCNS2(=O)=O` [Compound 33, (E)-2-[(1,1-dioxo-3,4-dihydro-2H-benzo[e][1,2]thiazin-6-yl)oxymethyl]-3-fluoro-prop-2-enyl-1-amine hydrochloride], for which the results for the IC50 in data set [2] and in data set [3] were 1.98 nM and 4.88 nM, respectively.
Consider `Cc1ccccc1N1CCc2cc(OC/C(=C/F)CN)ccc2C1=O` [Compound 46, 6-[(E)-2-(aminomethyl)-3-fluoro-allyloxy]-2-o-methylphenyl-3,4-dihydroisoquinolin-1-one hydrochloride], for which the IC50 in data set [1] is more than 0.1 µM.

In general, AUC(0-inf) refers to the area under the concentration-time curve extrapolated to infinity. Read a low AUC(0-inf) as low exposure. The term AUC(0-t) denotes exposure summed from dosing to a finite time, without extrapolation to infinity. Lower therefore signals low exposure. In general, Cmax refers to the highest concentration seen after dosing. The term Tmax denotes the time from dosing to the highest level. By half-life is commonly meant how long it takes for the measured level to halve. A lower half-life goes with fast loss.
